Read-outs that look alike come from different tables or passages of the source.
What was measured:
Assay type in all cases: cell-based
[1] = biological target: protein kinases (human kinome) (Homo sapiens, UniProt Q15119); settings: for logFC PDK2: Accession Q15119-1
[2] = biological target: T1, protein kinases (human kinome) (Homo sapiens, UniProt Q53H12); settings: direction down
T1 sequence (Q53H12 1-422): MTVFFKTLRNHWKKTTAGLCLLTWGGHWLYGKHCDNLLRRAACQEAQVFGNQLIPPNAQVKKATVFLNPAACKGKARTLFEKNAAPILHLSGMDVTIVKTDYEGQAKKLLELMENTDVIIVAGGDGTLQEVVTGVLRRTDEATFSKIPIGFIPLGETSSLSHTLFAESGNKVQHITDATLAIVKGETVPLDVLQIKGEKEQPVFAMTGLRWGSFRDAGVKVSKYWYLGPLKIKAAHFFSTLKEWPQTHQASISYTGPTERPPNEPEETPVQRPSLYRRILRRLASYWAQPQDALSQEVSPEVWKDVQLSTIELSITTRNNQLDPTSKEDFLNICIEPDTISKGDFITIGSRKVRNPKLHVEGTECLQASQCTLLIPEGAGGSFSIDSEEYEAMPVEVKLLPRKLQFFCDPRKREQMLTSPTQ

[3] = biological target: protein kinases (human kinome) (Homo sapiens, UniProt P41240); settings: for logFC of CSK: Accession P41240; for logFC CSK: CSK (P41240), down
[4] = biological target: protein kinases (human kinome) (Homo sapiens, UniProt Q00537); settings: for logFC of CDK17: Accession Q00537; for logFC CDK17 (Q00537): direction of change down
[5] = biological target: protein kinases (human kinome) (Homo sapiens, UniProt P50613)
[6] = biological target: protein kinases (human kinome) (Homo sapiens, UniProt Q9HBH9)
Chain of protein kinases (human kinome) (Homo sapiens, UniProt Q9HBH9) (Q9HBH9 whole entry): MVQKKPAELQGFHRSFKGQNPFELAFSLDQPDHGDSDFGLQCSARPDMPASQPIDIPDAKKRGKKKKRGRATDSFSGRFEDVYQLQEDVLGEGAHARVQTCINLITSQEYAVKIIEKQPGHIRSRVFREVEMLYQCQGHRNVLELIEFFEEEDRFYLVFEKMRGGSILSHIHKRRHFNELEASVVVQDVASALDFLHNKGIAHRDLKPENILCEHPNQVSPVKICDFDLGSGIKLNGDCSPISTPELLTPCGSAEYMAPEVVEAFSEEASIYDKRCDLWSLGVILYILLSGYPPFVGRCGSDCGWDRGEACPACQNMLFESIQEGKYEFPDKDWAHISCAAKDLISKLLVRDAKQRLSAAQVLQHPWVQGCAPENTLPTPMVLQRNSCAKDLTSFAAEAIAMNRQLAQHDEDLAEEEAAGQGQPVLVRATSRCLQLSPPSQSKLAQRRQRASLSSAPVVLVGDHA

Chain of protein kinases (human kinome) (Homo sapiens, UniProt Q00537) (Q00537 whole entry): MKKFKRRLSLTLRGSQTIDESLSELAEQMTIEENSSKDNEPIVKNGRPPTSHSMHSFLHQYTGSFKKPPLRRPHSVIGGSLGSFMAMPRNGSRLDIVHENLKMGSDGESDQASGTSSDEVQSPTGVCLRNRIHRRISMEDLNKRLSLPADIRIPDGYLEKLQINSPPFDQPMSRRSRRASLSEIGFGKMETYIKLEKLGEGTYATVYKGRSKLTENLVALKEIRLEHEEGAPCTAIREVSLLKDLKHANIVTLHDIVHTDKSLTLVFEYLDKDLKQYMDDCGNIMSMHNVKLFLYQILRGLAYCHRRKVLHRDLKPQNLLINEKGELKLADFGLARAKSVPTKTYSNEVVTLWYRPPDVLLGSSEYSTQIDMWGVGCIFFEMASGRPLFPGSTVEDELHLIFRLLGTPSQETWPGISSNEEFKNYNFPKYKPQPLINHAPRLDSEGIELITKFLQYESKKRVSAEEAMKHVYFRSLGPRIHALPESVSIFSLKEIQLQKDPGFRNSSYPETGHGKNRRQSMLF
Chain of protein kinases (human kinome) (Homo sapiens, UniProt P41240) (P41240 whole entry): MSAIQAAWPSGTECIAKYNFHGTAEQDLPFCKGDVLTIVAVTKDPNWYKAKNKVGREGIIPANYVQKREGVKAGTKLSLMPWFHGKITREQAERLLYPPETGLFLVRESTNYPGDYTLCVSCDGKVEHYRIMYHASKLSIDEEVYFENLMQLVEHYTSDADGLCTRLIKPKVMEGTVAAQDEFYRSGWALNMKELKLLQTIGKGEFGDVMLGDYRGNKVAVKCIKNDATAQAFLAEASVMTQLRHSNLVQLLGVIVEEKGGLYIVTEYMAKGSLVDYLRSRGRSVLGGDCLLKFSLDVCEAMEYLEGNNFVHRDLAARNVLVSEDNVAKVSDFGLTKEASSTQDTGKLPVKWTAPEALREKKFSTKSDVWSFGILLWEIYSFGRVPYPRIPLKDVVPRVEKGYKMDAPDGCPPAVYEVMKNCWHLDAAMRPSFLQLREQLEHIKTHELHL
Chain of protein kinases (human kinome) (Homo sapiens, UniProt P50613) (P50613 whole entry): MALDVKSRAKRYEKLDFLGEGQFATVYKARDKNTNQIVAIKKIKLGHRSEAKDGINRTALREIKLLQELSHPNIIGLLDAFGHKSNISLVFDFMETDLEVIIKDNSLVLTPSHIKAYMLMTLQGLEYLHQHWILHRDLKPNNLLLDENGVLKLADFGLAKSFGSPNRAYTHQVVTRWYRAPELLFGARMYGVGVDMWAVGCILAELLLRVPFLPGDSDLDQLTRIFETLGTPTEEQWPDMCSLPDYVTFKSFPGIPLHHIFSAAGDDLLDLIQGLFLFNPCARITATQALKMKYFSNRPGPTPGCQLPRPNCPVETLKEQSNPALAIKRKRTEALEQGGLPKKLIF

## CC(=O)c1c(C)c2cnc(Nc3ccc(N4CCN(CCOCCOCCOCCNC(=O)COc5cccc6c5C(=O)N(C5CCC(=O)NC5=O)C6=O)CC4)cn3)nc2n(C2CCCC2)c1=O (stereo not drawn) [BSJ.03.123]
[1]; experiment wp084
  logFC PDK2: −0.3615
  logFC PDK2 (Q15119-1): −0.3615
[2]; Experiment wp084
  logFC AGK (Q53H12): −0.6506

## CN(C)C(=O)c1cc2cnc(Nc3ccc(N4CCN(CCCCNC(=O)COc5cccc6c5C(=O)N(C5CCC(=O)NC5=O)C6=O)CC4)cn3)nc2n1C1CCCC1 (stereo not drawn) [BSJ.04.132]
[1]; experiment wp084
  logFC PDK2: −0.5289
  logFC PDK2 (Q15119-1): −0.5289
[2]; Experiment wp084
  logFC AGK (Q53H12): −0.6709

## CC(C)(C)c1nc(-c2cccc(NS(=O)(=O)c3c(F)cccc3F)c2F)c(-c2ccnc(NCCOCCNC(=O)CCOCCOCCNc3cccc4c3C(=O)N(C3CCC(=O)NC3=O)C4=O)n2)s1 (stereo not drawn) [DD.03.106]
[3]; experiment wp147, 4 uM
  logFC of CSK: −0.5149
  logFC CSK: −0.5149
[1]; experiment wp147, 4 uM
  logFC PDK2 (Q15119-1): −0.727
[4]; experiment wp047
  logFC of CDK17: −0.72
  logFC CDK17 (Q00537): −0.72
[4]; experiment wp147, 1 uM
  logFC of CDK17: −0.7615
  logFC CDK17 (Q00537): −0.7615
[4]; experiment wp147, 4 uM
  logFC of CDK17: −0.6232
  logFC CDK17 (Q00537): −0.6232
[4]; experiment wp147, 2 uM
  logFC CDK17 (Q00537): −0.8288
[2]; Experiment wp147, 2 uM
  logFC AGK (Q53H12): −0.346
[2]; Experiment wp147, 4 uM
  logFC AGK (Q53H12): −0.9499

## CC(C)(C)c1nc(-c2cccc(NS(=O)(=O)c3c(F)cccc3F)c2F)c(-c2ccnc(NCCOCCNC(=O)CCOCCOCCNc3cccc4c3CN(C3CCC(=O)NC3=O)C4=O)n2)s1 (stereo not drawn) [DD.03.107]
[1]; experiment wp137
  logFC PDK2: −0.3383
  logFC PDK2 (Q15119-1): −0.3383
[1]; experiment wp147, 1 uM
  logFC PDK2: −0.4963
  logFC PDK2 (Q15119-1): −0.4963
[1]; experiment wp147, 2 uM
  logFC PDK2: −0.5351
  logFC PDK2 (Q15119-1): −0.5351
[1]; experiment wp147, 4 uM
  logFC PDK2: −0.9269
  logFC PDK2 (Q15119-1): −0.9269
[2]; Experiment wp147, 1 uM
  logFC AGK (Q53H12): −0.7983
[2]; Experiment wp147, 2 uM
  logFC AGK (Q53H12): −0.8655
[2]; Experiment wp147, 4 uM
  logFC AGK (Q53H12): −1.343

## O=C(COc1cccc2c1C(=O)N(C1CCC(=O)NC1=O)C2=O)NCCCCCCCC(=O)NC1(c2ccc(-c3nc4ccn5c(=O)[nH]nc5c4cc3-c3ccccc3)cc2)CCC1 (stereo not drawn) [INY.01.140.1]
[1]; experiment wp081
  logFC PDK2: −0.6094
  logFC PDK2 (Q15119-1): −0.6094
[2]; Experiment wp081
  logFC AGK (Q53H12): −0.4936

## Cc1cnc(Nc2ccc(N3CCN(CCOCCOCCNC(=O)COc4cccc5c4C(=O)N(C4CCC(=O)NC4=O)C5=O)CC3)cc2)nc1Nc1cccc(S(=O)(=O)NC(C)(C)C)c1 (stereo not drawn) [JWG.118]
[2]; Experiment wp071
  logFC AGK (Q53H12): −0.5599

## CNC(=O)c1ccccc1Nc1cc(Nc2ccc(N3CCN(CCOCCOCCNC(=O)CNc4cccc5c4C(=O)N(C4CCC(=O)NC4=O)C5=O)CC3)cc2OC)ncc1C(F)(F)F (stereo not drawn) [MFH.5.103.1]
[5]; CDK7 (P50613) protein abundance, degrader vs DMSO, down
  logFC: −0.5098
[5]; CDK7 P50613, experiment wp076
  logFC CDK7: −0.5098
[2]; Experiment wp076
  logFC AGK (Q53H12): −0.3672

## Nc1ncnc2c1c(-c1ccc(Oc3ccccc3)cc1)nn2[C@H]1CC[C@H](N2CCN(CCOCCNC(=O)CNc3cccc4c3C(=O)N(C3CCC(=O)NC3=O)C4=O)CC2)CC1 (stereo partly drawn) [SB1.G.181]
[3]; experiment wp071
  logFC of CSK: −3.229
  logFC CSK: −3.229
[2]; Experiment wp071
  logFC AGK (Q53H12): −0.3991

## Cc1ccc(C(=O)Nc2ccc(CN3CCN(CCCOCCOCCOCCNC(=O)COc4cccc5c4C(=O)N(C4CCC(=O)NC4=O)C5=O)CC3)c(C(F)(F)F)c2)cc1C#Cc1cnc2cccnn12 (stereo not drawn) [SB1.G.187]
[1]; experiment wp056
  logFC PDK2: −0.4016
  logFC PDK2 (Q15119-1): −0.4016
[4]; experiment wp172
  logFC of CDK17: −0.3562
  logFC CDK17 (Q00537): −0.3562
[2]; Experiment wp056
  logFC AGK (Q53H12): −0.5707

## C=CCn1c(=O)c2cnc(Nc3ccc(N4CCN(CCCNc5cccc6c5C(=O)N(C5CCC(=O)NC5=O)C6=O)CC4)cc3)nc2n1-c1cccc(C(C)(C)O)n1 (stereo not drawn) [ZNL.02.096]
[6]; Experiment wp118, direction down
  logFC MKNK2 (Q9HBH9-1): −0.4751
[6]; MKNK2 (Q9HBH9-1), experiment wp118
  logFC: −0.4751
[1]; experiment wp056
  logFC PDK2: −0.5561
  logFC PDK2 (Q15119-1): −0.5561
[1]; experiment wp118
  logFC PDK2: −0.37
  logFC PDK2 (Q15119-1): −0.37
[2]; Experiment wp056
  logFC AGK (Q53H12): −0.5514

Source: patent US20240269139A1, “COMPOUNDS FOR TARGETED PROTEIN DEGRADATION OF KINASES” (DANA-FARBER CANCER INSTITUTE, INC., priority 2020, published 2024)
